Measurements as given in US20200368338A1, “CONJUGATE OF WT1-DERIVED PEPTIDES AND COMPOSITION COMPRISING THE SAME” (SUMITOMO DAINIPPON PHARMA CO., LTD., priority 2017, published 2020).

Test system: HLA-A2402 transgenic mouse
Assay: Evaluation of CTL inducing ability in vivo in HLA-A2402 transgenic mouse (IFNγ ELISPOT assay of splenocytes)
Details: intradermal emulsion with Montanide ISA 51 VG, tail base, two sites, splenocytes one week after administration stimulated with peptide of SEQ ID NO: 4 at 10 μg/ml, FIG. 1
Procedure: The solution was diluted with water for injection to a concentration of 5.0 mg/mL, and then converted to an emulsion by addition of an equal volume of Montanide ISA 51 VG. […] One week after the administration, the mice were sacrificed with CO2 gas. Splenocytes were harvested from spleens removed from the mice. […] In particular, an ELISPOT plate was treated with an anti-mouse-IFNγ antibody on the day before preparation of the splenocyte samples. On the next day, the plate was blocked by treatment with an RPMI 1640 medium with 10% FBS. […] For in vitro stimulation of the cells, the peptide of SEQ ID NO: 4 was dissolved in DMSO at a concentration of 40 mg/ml, diluted with RPMI 1640 with 10% FBS to 40 μg/ml, and added to the splenocyte-containing wells at a final concentration of 10 μg/ml. […] Then, after removal of the culture medium from the wells, the ELISPOT plate was subjected to treatment for cell staining in accordance with the manufacturer's protocol. Stained spots were counted on ImmunoSpot Analyzer (C.T.L.).

CYTWNQMNL [peptide of SEQ ID NO: 4, HLA-A2402-restricted WT1 peptide]
induction of CTLs responsive to the peptide of SEQ ID NO: 4 (IFNγ-producing splenocytes): induced CTLs responsive to the peptide of SEQ ID NO: 4
